Laboratory results from patent publication US20250333410A1, “COMPOUND FOR INHIBITING OR DEGRADING BCL6 AND USE THEREOF IN PHARMACEUTICS” (XIZANG HAISCO PHARMACEUTICAL CO., LTD., priority 2022, published 2025).

The compounds below were run against Bcl6 (Homo sapiens (Human), UniProt P41182) (assay: Bcl-6 protein degradation experiment in Farage cells). Conditions: 24 hours.
Assay type: cell-based
Experimental: 2. Bcl-6 Protein Degradation Experiment in Farage Cells
Farage cells purchased from ATCC were placed in an RPMI-1640 complete medium (containing 10% fetal bovine serum, 100 U/mL penicillin and 100 μg/mL streptomycin) and cultured at 37° C. and 5% CO2. The cells in the logarithmic growth phase were collected, and the cell suspension was adjusted to an appropriate density with the culture medium and added to a 6-well cell culture plate at a volume of 1 mL/well. The compounds to be tested were prepared to 2-fold the final concentration, 1 mL of the compounds at different concentrations were added to administration wells, a medium containing 0.2% DMSO was added to control wells, and the plate was incubated at 37° C. for 24 hours. The cells were collected into a 1.5 mL centrifuge tube, 25 μL of RIPA lysis buffer (containing 1× protease inhibitor cocktail) was added, and the cells were lysed on ice for 15 minutes and centrifuged at 12000 rpm/min at 4° C. for 10 minutes. The supernatant was collected and the protein content was determined using the BCA method. The protein sample to be tested was diluted to 0.8 mg/mL, Bcl6 was detected using a fully automated protein expression quantitative analyzer (ProteinSimple), and the internal reference protein was R-actin (both antibodies were from CST). The software (Compass for SW) of the fully automated protein expression quantitative analyzer was used to process the raw data and calculate the peak area and the Bcl6 expression rate relative to the control group. DC50 values were calculated using a four-parameter non-linear fitting model in Graphpad 8.3.0 software.

| SMILES | DC50 |
| --- | --- |
| CNC(=O)COc1cc2cc(Nc3nc(N4CCN(CC5CCN(c6ccc(C7CCC(=O)NC7=O)c(F)c6)CC5)CC4)ncc3Cl)ccc2n(C2CC2)c1=O (stereo not drawn) [Trifluoroacetate of compound 53] | < 10 nM |
| CNC(=O)COc1cc2cc(Nc3nc(N4CCC(CN5CCN6c7ccc(C8CCC(=O)NC8=O)cc7CCC6C5)CC4)ncc3Cl)ccc2n(C(C)C)c1=O (stereo not drawn) [Trifluoroacetate of compound 54] | < 10 nM |
| CNC(=O)COc1cc2cc(Nc3nc(N4CCN(CC5CCN(c6cccc(C7CCC(=O)NC7=O)c6)CC5)CC4)ncc3Cl)ccc2n(C)c1=O (stereo not drawn) [Trifluoroacetate of compound 55] | < 10 nM |
| CCn1c(=O)c(OCC(=O)NC)cc2cc(Nc3nc(N4CCC(O[C@H]5C[C@H](N6CCN7c8cc(F)c(C9CCC(=O)NC9=O)cc8CC[C@H]7C6)C5)CC4)ncc3Cl)ccc21 (stereo partly drawn) [Trifluoroacetate of compound 61] | < 10 nM |
| CCn1c(=O)c(OCC(=O)NC)cc2cc(Nc3nc(N4CCN(CC5CCN(c6ccc(C7CCC(=O)NC7=O)c(F)c6)CC5)CC4)ncc3Cl)ccc21 (stereo not drawn) [Trifluoroacetate of compound 68] | < 10 nM |
| CCn1c(=O)c(OCC(=O)NC)cc2cc(Nc3nc(N4CCN(CC5CCN(c6ccc(C7CCC(=O)NC7=O)cc6)CC5)CC4)ncc3Cl)ccc21 (stereo not drawn) [Trifluoroacetate of compound 69] | < 10 nM |
| CNC(=O)COc1cc2cc(Nc3nc(N4CCC(O[C@H]5C[C@H](N6CCN7c8cc(F)c(C9CCC(=O)NC9=O)cc8CC[C@@H]7C6)C5)CC4)ncc3Cl)ccc2n(C(C)C)c1=O (stereo partly drawn) [Trifluoroacetate of compound 70] | < 10 nM |
| [2H]C([2H])([2H])NC(=O)COc1cc2cc(Nc3nc(N4CCC(O[C@H]5C[C@H](N6CCN7c8cc(F)c(C9CCC(=O)NC9=O)cc8CC[C@H]7C6)C5)CC4)ncc3Cl)ccc2n(C(C)C)c1=O (stereo partly drawn) [Trifluoroacetate of compound 84] | < 10 nM |
| [2H]C([2H])([2H])NC(=O)COc1cc2cc(Nc3nc(N4CCC(CN5CCN6c7cc(F)c(C8CCC(=O)NC8=O)cc7CC[C@H]6C5)CC4)ncc3Cl)ccc2n(C(C)C)c1=O (stereo partly drawn) [Trifluoroacetate of compound 85] | < 10 nM |
| [2H]C([2H])([2H])n1c(=O)c(OCC(=O)NC)cc2cc(Nc3nc(N4CCC(O[C@H]5C[C@H](N6CCN7c8cc(F)c(C9CCC(=O)NC9=O)cc8CC[C@@H]7C6)C5)CC4)ncc3Cl)ccc21 (stereo partly drawn) [Trifluoroacetate of compound 90] | < 10 nM |
| [2H]C([2H])([2H])NC(=O)COc1cc2cc(Nc3nc(N4CCC(O[C@H]5C[C@H](N6CCN7c8cc(F)c(C9CCC(=O)NC9=O)cc8CC[C@@H]7C6)C5)CC4)ncc3Cl)ccc2n(C([2H])([2H])[2H])c1=O (stereo partly drawn) [Trifluoroacetate of compound 91] | < 10 nM |
| [2H]C([2H])([2H])NC(=O)COc1cc2cc(Nc3nc(N4CCC(O[C@H]5C[C@H](N6CCN7c8cc(F)c(C9CCC(=O)NC9=O)cc8CC[C@@H]7C6)C5)CC4)ncc3Cl)ccc2n(C)c1=O (stereo partly drawn) [Trifluoroacetate of compound 92] | < 10 nM |
| [2H]C([2H])([2H])NC(=O)COc1cc2cc(Nc3nc(N4CCC(O[C@H]5C[C@H](N6CCN7c8cc(F)c(C9CCC(=O)NC9=O)cc8CC[C@@H]7C6)C5)CC4)ncc3Cl)ccc2n(C(C)C)c1=O (stereo partly drawn) [Trifluoroacetate of compound 93] | < 10 nM |
| CNC(=O)COc1cc2cc(Nc3nc(N4CCC(F)(CN5CCN6c7cc(F)c(C8CCC(=O)NC8=O)cc7CC[C@H]6C5)CC4)ncc3Cl)ccc2n(C(C)C)c1=O (stereo partly drawn) [Trifluoroacetate of compound 94] | < 10 nM |

Other lines, results leading:

| DC50 | SMILES |
| --- | --- |
| < 10 nM | CNC(=O)COc1cc2cc(Nc3nc(N4CCC(CN5CCN(c6cccc7c6n(C)c(=O)n7C6CCC(=O)NC6=O)CC5)CC4)ncc3Cl)ccc2n(C)c1=O (stereo not drawn) [Compound 9] |
| < 10 nM | CC(=O)COc1cc2cc(Nc3nc(N4CCC(CN5CCN(c6cccc7c6n(C)c(=O)n7C6CCC(=O)NC6=O)CC5)CC4)ncc3Cl)ccc2n(C)c1=O (stereo not drawn) [Compound 10] |
| < 10 nM | CNC(=O)COc1cc2cc(Nc3nc(N4CCN(CC5CCN(Cc6cccc7c6n(C)c(=O)n7C6CCC(=O)NC6=O)CC5)CC4)ncc3Cl)ccc2n(C)c1=O (stereo not drawn) [Compound 12] |
| < 10 nM | CC(=O)COc1cc2cc(Nc3nc(N4CCN(CC5CCN(c6cc(F)c(C7CCC(=O)NC7=O)c(F)c6)CC5)CC4)ncc3Cl)ccc2n(C)c1=O (stereo not drawn) [Compound 22] |
| < 10 nM | CNC(=O)COc1cc2cc(Nc3nc(N4CCN(CC5CCN(c6ccc(C7CCC(=O)NC7=O)cn6)CC5)CC4)ncc3Cl)ccc2n(C)c1=O (stereo not drawn) [Compound 39] |
| < 10 nM | [2H]C([2H])([2H])NC(=O)COc1cc2cc(Nc3nc(N4CCN(CC5CCN(c6ccc(C7CCC(=O)NC7=O)cc6)CC5)CC4)ncc3Cl)ccc2n(C)c1=O (stereo not drawn) [Compound 47] |
| < 10 nM | C#CCn1c(=O)c(OCC(=O)NC)cc2cc(Nc3nc(N4CCC(CN5CCN6c7ccc(C8CCC(=O)NC8=O)cc7CCC6C5)CC4)ncc3Cl)ccc21 (stereo not drawn) [Compound 50] |
| < 10 nM | CNC(=O)COc1cc2cc(Nc3nc(N4CCC(CN5CCN6c7ccc(C8CCC(=O)NC8=O)cc7CCC6C5)CC4)ncc3Cl)ccc2n(C2CC2)c1=O (stereo not drawn) [Compound 51] |
| < 10 nM | CNC(=O)COc1cc2cc(Nc3nc(N4CCC(O[C@H]5C[C@H](N6CCN(c7ccc(C8CCC(=O)NC8=O)cc7)CC6)C5)CC4)ncc3Cl)ccc2n(C(C)C)c1=O (stereo partly drawn) [Compound 95] |
| < 10 nM | CNC(=O)COc1cc2cc(Nc3nc(N4CCC(O[C@H]5C[C@H](N6CCN(c7ccc(C8CCC(=O)NC8=O)c(F)c7)CC6)C5)CC4)ncc3Cl)ccc2n(C(C)C)c1=O (stereo partly drawn) [Compound 96] |
| < 10 nM | CC(=O)COc1cc2cc(Nc3nc(N4CCC(N5CCN(c6ccc(NC7CCC(=O)NC7=O)cc6F)CC5)C(F)(F)C4)ncc3Cl)ccc2n(C)c1=O (stereo not drawn) [Trifluoroacetate of compound 5] |
| < 10 nM | CNC(=O)COc1cc2cc(Nc3nc(N4CCC(N5CCN(c6ccc(NC7CCC(=O)NC7=O)cc6F)CC5)C(F)(F)C4)ncc3Cl)ccc2n(C)c1=O (stereo not drawn) [Trifluoroacetate of compound 7] |
| < 10 nM | CNC(=O)COc1cc2cc(Nc3nc(N4CCC(N(C)C5CCN(c6cccc7c6n(C)c(=O)n7C6CCC(=O)NC6=O)CC5)CC4)ncc3Cl)ccc2n(C)c1=O (stereo not drawn) [Trifluoroacetate of compound 11] |
| < 10 nM | CC(=O)COc1cc2cc(Nc3nc(N4CCN(c5ccc(C6CCC(=O)NC6=O)cc5)CC4)ncc3Cl)ccc2n(C)c1=O (stereo not drawn) [Trifluoroacetate of compound 17] |
| < 10 nM | CNC(=O)COc1cc2cc(Nc3nc(N4CCN(c5ccc(C6CCC(=O)NC6=O)cc5)CC4)ncc3Cl)ccc2n(C)c1=O (stereo not drawn) [Trifluoroacetate of compound 20] |
| < 10 nM | CNC(=O)COc1cc2cc(Nc3nc(N4CCN(CC5CN(c6ccc(C7CCC(=O)NC7=O)cc6F)C5)CC4)ncc3Cl)ccc2n(C)c1=O (stereo not drawn) [Trifluoroacetate of compound 40] |
| < 10 nM | CNC(=O)COc1cc2cc(Nc3nc(N4CCN(CC5CCN(c6ccc(C7CCC(=O)NC7=O)cc6F)CC5)CC4)ncc3Cl)ccc2n(C)c1=O (stereo not drawn) [Trifluoroacetate of compound 41] |
| < 10 nM | CNC(=O)COc1cc2cc(Nc3nc(N4CCN(CC5CCN(c6ccc(C7CCC(=O)NC7=O)cc6)CC5)CC4)ncc3Cl)ccc2n(C(C)C)c1=O (stereo not drawn) [Trifluoroacetate of compound 42] |
| < 10 nM | C#CCn1c(=O)c(OCC(=O)NC)cc2cc(Nc3nc(N4CCN(CC5CCN(c6ccc(C7CCC(=O)NC7=O)c(F)c6)CC5)CC4)ncc3Cl)ccc21 (stereo not drawn) [Trifluoroacetate of compound 52] |
